Assay results published in patent US12492422B2, “Ex vivo protease activity detection for disease detection/diagnostic, staging, monitoring and treatment” (Sunbird Bio, Inc., priority 2020, dated 2025).
Square brackets hold non-standard residues; d marks the D form. Primed or numbered codes have the meaning given here. Ends that are not written are not given here. CPQ2″ = quencher on the Lys side chain; FAM = fluorescent reporter; CPQ2(4) = quencher on Lys; PEG2″ = PEG2 spacer; CPQ2 = quencher

Experiments:
[1] = tested on: proteases cleaving Probe #102 in plasma (cathepsin L); experiment: Inhibitor profiling of Probe #102 cleavage in NASH and healthy plasma; assay type: biochemical, mice; conditions: for effect of inhibitor on Probe #102 signal: NASH or healthy samples
Experimental: For this experiment, all plasma samples were prepared individually and diluted 1/10e in PBS with inhibitor added directly to the samples. Inhibitor was prepared at 15× concentration to final. Substrates were diluted in DI water at 18 uM, such that the final concentration on the plate would be 6 uM. All samples were prepared such that their last dilution on the plate would not affect the desired final concentration. 10 ul of each individual sample was pipetted into their corresponding wells, and the plate was then spun down in the centrifuge at 1500 RPM for 30 seconds to coat the bottom of each well with the sample. 5 ul of the 18 uM substrate solution was pipetted into each well being used on a 384 well plate, and then the plate was spun down in the centrifuge at 1500 rpm for 30 seconds. The plate was placed immediately in the plate reader at 37° C. for a 30-minute-long fluorescence kinetic read at 485/535 extended gain.
To assess the proteolytic cleavage pattern of Probe #102, samples were tested using a pool of broad inhibitors for serine, cysteine, threonine, MMP and aspartic protease family members (broad inhibitor) to assess general protease activity, AEBSF for serine proteases, E64 for cysteine proteases, CTSi for broad cathepsin inhibition of cathepsins L, S, K and B, or specific inhibitors for cathepsin K (L00625), for cathepsin L (SID) or cathepsin B (CA074).

furin = furin (Homo sapiens, UniProt P09958); conditions: solid-state fluorescence of precipitates after reaction of HPQF with furin; cited from earlier work
[2] = tested on: carboxylesterase 1, phospholipase A2 and lipoprotein lipase; experiment: Resorufin oleate substrate with recombinant enzymes spiked in human plasma; assay type: biochemical
caspase activity = experiment: Ex vivo probe cleavage in plasma of Jo2 fulminant hepatitis model; assay type: biochemical, mouse; conditions: plasma 3 hours after Jo2 injection
Experimental: Fulminant hepatitis is induced after injection intraperitoneal of monoclonal antibody anti-CD95 (Jo2, BD biosciences, 4 ug/animal), and mouse plasma samples were collected 3 hours after Jo2 injection.
The comparison with mass spectrometry data also aligns and confirms high concordance with the ex vivo approach, which is reassuring to confirm the existence of a biologically relevant signal.

COVID-related proteases [3] = experiment: Ex vivo probe cleavage in K2EDTA and Lithium Heparin plasma, COVID vs healthy; assay type: biochemical; conditions: K2EDTA and LiHeparin plasma cohorts
[4] = tested on: cathepsin and/or MMP protease activities; experiment: Ex vivo probe cleavage in plasma: healthy, NASH regression, NASH progression; assay type: biochemical, mice; conditions: K2EDTA plasma at 20 weeks
Text: Plasma samples were collected from all animals at 20 weeks.
The probes showing the most differentiation in NASH were linked to cathepsin and/or MMP protease activities.

Granzyme B = molecular target: T1, Granzyme B (Homo sapiens, UniProt P10144); experiment: Inhibition experiments on Probe #647 signal in swabs (Granzyme B, caspases); assay type: biochemical; conditions: healthy vs COVID samples
T1 construct: from tissue; host or cells: swab samples

COVID-related proteases [5] = experiment: Ex vivo probe cleavage in COVID positive and negative swab samples; assay type: biochemical

Chain of furin (P09958 108-794, species assumed): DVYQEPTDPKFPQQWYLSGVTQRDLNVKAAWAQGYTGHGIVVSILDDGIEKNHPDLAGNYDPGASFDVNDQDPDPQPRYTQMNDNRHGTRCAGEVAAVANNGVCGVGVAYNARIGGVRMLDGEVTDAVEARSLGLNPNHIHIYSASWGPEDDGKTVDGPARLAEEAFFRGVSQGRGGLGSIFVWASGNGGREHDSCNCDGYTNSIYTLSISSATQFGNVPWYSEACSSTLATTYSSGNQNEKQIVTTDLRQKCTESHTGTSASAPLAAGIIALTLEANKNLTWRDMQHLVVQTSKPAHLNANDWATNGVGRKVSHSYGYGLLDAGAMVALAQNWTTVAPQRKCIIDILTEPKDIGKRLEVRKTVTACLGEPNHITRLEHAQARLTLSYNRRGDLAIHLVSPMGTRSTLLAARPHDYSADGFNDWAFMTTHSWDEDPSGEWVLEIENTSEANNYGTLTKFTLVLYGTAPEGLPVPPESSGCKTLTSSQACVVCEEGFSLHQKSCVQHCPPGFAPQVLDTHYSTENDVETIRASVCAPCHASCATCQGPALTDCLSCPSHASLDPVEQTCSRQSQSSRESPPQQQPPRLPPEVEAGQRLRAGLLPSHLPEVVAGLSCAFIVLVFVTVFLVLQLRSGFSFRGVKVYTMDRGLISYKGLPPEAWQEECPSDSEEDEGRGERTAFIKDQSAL
T1 sequence (P10144 21-247): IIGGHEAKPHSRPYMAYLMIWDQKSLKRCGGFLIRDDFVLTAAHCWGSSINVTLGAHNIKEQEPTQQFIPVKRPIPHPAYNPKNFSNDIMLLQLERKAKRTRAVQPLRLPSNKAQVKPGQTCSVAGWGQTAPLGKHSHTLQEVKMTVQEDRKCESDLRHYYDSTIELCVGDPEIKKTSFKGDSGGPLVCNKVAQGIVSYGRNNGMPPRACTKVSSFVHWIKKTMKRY

NCCc1ccc(S(=O)(=O)F)cc1 [AEBSF]
decrease of RFU signal in NASH samples ([1]; Probe #102 6 uM, NASH plasma diluted in PBS, 30-minute kinetic read at 37° C.): 65%
decrease of RFU signal in healthy samples ([1]; Probe #102 6 uM, healthy plasma diluted in PBS, 30-minute kinetic read at 37° C.): 60%

CCCNC(=O)[C@H]1O[C@@H]1C(=O)N[C@H](C(=O)N1CCC[C@H]1C(=O)O)[C@@H](C)CC [CA074]
effect of inhibitor on Probe #102 signal [1]: did not significantly decrease signal

O=c1[nH]c(-c2cc(Cl)ccc2O)nc2ccc(Cl)cc12 [Cl-HPQ]
fluorescence enhancement (furin): more than 60 fold

CC(C)C[C@H](NC(=O)[C@H]1O[C@@H]1C(=O)O)C(=O)NCCCCN=C(N)N [Probe E64]
effect of inhibitor on Probe #102 signal [1]: decreased NASH signal significantly

CN1CCN(c2nc(-c3ccc(C(=O)NC4(C(=O)NCC#N)CCCCC4)cc3)cs2)CC1 [Probe L006235]
effect of inhibitor on Probe #102 signal [1]: did not significantly decrease signal

CCCC(=O)O [butyrate]
suitability as substrate for enzyme detection [2]: promising for detection of broad range of enzymes

Probe #8: Caspase centric probe (GVDVADGK; not fully specified; 5-FAM, CPQ2 quencher, PEG2, D-Lys-D-Lys-GC; MOD_RES (8)..(8) Lys modified with a CPQ2 quencher)
contrast in Jo2 hepatitis model (caspase activity): show contrast that is specific and sensitive to the Jo2 model

Probe #12: Caspase centric probe (GDEVDGK; not fully specified; 5-FAM, CPQ2 quencher, PEG2, D-Lys-D-Lys-GC; MOD_RES (7)..(7) Lys modified with a CPQ2 quencher)
contrast in Jo2 hepatitis model (caspase activity): show contrast that is specific and sensitive to the Jo2 model

Probe #18: Neutrophil elastase substrate (GAAPVGK(CPQ2); also: 5-FAM, position not given here, PEG2, position not given here)
differential cleavage between COVID and healthy samples (COVID-related proteases [3]): demonstrated contrast in both sets

Probe #84: Furin substrate (GRVKRGLAGK(CPQ2); also: 5-FAM, position not given here, PEG2, position not given here)
differential cleavage between COVID and healthy samples (COVID-related proteases [3]): demonstrated contrast in both sets

Probe #96: probe of Table 1 ({FAM}-GRPLALWESQGK(CPQ2(4))[PEG2″][dK]GC; not fully specified; printed as (FAM)-GRPLALWESQG-K(CPQ2)-PEG2-k-GC; also: FAM, place not given here, D-Lys-GC, place not given here)
differentiation among healthy, regression and NASH samples [4]: can differentiate

Probe #102: a CTSL sensing probe; fluorescent reporter and quencher ({FAM}-GKPILFFRLKGK(CPQ2″)[PEG2″][dK][dK]GC; also: fluorescent reporter and quencher, places not given here)
differentiation among healthy, regression and NASH samples [4]: can differentiate
protease whose activity the probe responds to ([1]; individual cathepsin inhibitors, FIG. 30D-F): specifically responds to the activity of cathepsin L (CTSL)

Probe #409: the SARS CoV2 coronavirus substrate (GTSAVLQSGFRKGK(CPQ2); also: 5-FAM, position not given here, PEG2, position not given here)
differential cleavage between COVID and healthy samples (COVID-related proteases [3]): modest contrast in the K2 EDTA samples

Probe #428: probe of Table 1 ({FAM}-GDRRKKLTQGK(CPQ2(4))[PEG2″][dK][dK]GC; not fully specified; printed as (FAM)-GDRRKKLTQG-K(CPQ2)-(PEG2)-DLys-DLys-GC; also: FAM, place not given here, D-Lys-D-Lys-GC, place not given here)
differentiation among healthy, regression and NASH samples [4]: can differentiate

Probe #462: MMP8 substrate (GKKAKRNALGK(CPQ2); also: FAM, position not given here, PEG2, position not given here)
differential cleavage between COVID and healthy samples (COVID-related proteases [3]): demonstrated contrast in both sets

Probe #492: probe of Table 1; differentiates NASH in mouse plasma ({FAM}-GQRANSIRVTWGK(CPQ2(4))[PEG2″][dK][dK]GC; not fully specified; printed as (FAM)-GQRANSIRVTWG-K(CPQ2)-(PEG2)-DLys-DLys-GC; also: FAM, place not given here, D-Lys-D-Lys-GC, place not given here)
differentiation among healthy, regression and NASH samples [4]: can differentiate

Probe #520: probe of Table 1 (GKPISLISSGK; not fully specified; 5FAM, CPQ2 quencher, PEG2-GC; MOD_RES (11)..(11) Lys modified with a CPQ2 quencher)
differentiation among healthy, regression and NASH samples [4]: can differentiate

Probe #647: Caspase centric probe; signal measures Granzyme B activity (GAIEPDSGGK(CPQ2); also: 5FAM, position not given here, PEG2, position not given here, D-Lys-D-Lys-GC-NH2, position not given here)
differentiation among healthy, regression and NASH samples [4]: can differentiate
protease measured by probe signal (Granzyme B): measures the activity of protease Granzyme B
active samples among COVID+ (COVID-related proteases [5]; adjusted RFU across timepoints): 7 samples
active samples among COVID− (COVID-related proteases [5]; adjusted RFU across timepoints): 1 sample
differentiation between COVID+ and COVID− samples (COVID-related proteases [5]; swab samples in saline): key differentiator
contrast in Jo2 hepatitis model (caspase activity): show contrast that is specific and sensitive to the Jo2 model

Resorufin oleate
suitability as substrate for enzyme detection [2]: promising for detection of broad range of enzymes
